ChEMBL document CHEMBL4842383 (J Med Chem, 2021)
Values belong to the compound of their own block, whether it stands above or below them. Activity calls are given as the source filed them. The rule behind the calls is not given here.

Legend:
BaF3 = assay: Antiproliferative activity against mouse BaF3 cells transfected with human ETV6-CSF1R assessed as reduction in cell viability measured after 72 hrs by MTS method; details: BaF3, 72 h
[1] = Half life in Sprague-Dawley rat at 5 mg/kg, iv measured up to 24 hrs by LC-MS/MS analysis; assay type: ADME, organism-based; details: in vivo
[2] = molecular target: T1, Macrophage colony-stimulating factor 1 receptor (Homo sapiens, UniProt P07333); assay: Inhibition of human recombinant GST-CSF1R (residues L534 to C972) expressed in Sf9 insect cells using poly(Glu,Tyr) as substrate incubated for 20 mins by ATP Kinase Glo assay
T1 sequence (P07333 whole entry, the tested form may be a part): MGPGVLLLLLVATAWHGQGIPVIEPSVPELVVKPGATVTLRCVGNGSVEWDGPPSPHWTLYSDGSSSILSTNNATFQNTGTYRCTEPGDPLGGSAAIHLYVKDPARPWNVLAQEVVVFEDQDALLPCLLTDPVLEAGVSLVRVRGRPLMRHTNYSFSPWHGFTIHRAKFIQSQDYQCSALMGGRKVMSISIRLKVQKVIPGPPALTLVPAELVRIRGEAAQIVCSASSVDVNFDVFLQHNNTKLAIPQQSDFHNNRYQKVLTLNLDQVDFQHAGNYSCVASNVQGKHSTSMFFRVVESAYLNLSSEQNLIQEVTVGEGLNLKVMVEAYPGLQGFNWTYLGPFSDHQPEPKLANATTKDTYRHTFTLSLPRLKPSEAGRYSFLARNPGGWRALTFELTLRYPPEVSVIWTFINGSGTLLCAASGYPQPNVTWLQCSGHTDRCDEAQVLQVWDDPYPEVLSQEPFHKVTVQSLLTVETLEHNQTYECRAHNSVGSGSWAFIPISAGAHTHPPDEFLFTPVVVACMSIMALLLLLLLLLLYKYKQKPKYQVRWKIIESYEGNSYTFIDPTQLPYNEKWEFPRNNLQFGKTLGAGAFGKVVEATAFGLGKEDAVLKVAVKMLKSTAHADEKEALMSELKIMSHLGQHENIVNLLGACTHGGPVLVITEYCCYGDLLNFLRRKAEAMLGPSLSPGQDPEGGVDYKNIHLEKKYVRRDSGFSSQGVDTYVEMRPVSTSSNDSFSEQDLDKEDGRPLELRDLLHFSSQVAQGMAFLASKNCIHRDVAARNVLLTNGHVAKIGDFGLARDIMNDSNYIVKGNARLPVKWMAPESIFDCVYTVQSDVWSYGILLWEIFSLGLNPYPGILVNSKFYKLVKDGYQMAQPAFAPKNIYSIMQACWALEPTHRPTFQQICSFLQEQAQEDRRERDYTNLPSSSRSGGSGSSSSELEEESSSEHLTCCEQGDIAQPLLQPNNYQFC

Aurora kinase B [3] = molecular target: T2, Aurora kinase B (Homo sapiens, UniProt Q96GD4); assay: Inhibition of wild-type human partial length AURKB (D25 to A303 residues) expressed in mammalian expression system by Kinomescan method
T2 sequence (Q96GD4 whole entry, the tested form may be a part): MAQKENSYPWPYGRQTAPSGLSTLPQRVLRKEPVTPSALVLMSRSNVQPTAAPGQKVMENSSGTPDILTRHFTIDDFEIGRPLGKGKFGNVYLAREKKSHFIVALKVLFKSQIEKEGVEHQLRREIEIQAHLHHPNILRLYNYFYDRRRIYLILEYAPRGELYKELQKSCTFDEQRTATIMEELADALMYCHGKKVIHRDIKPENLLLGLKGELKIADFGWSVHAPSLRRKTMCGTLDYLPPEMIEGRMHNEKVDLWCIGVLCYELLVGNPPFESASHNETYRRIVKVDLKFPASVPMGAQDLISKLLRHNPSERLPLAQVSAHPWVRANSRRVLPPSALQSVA

[4] = Oral bioavailability in Sprague-Dawley rat at 20 to 25 mg/kg measured up to 24 hrs by LC-MS/MS analysis; assay type: ADME, organism-based; details: in vivo, dose 20-25 mg/kg
Aurora kinase A = molecular target: T3, Aurora kinase A (Homo sapiens, UniProt O14965); assay: Inhibition of recombinant GST-AURKA (residues Ser123 to Ser401) (unknown origin) expressed in Sf9 insect cells using tetra(-LRRASLG) peptide as substrate incubated for 90 mins by ATP Kinase Glo assay
T3 sequence (O14965 whole entry): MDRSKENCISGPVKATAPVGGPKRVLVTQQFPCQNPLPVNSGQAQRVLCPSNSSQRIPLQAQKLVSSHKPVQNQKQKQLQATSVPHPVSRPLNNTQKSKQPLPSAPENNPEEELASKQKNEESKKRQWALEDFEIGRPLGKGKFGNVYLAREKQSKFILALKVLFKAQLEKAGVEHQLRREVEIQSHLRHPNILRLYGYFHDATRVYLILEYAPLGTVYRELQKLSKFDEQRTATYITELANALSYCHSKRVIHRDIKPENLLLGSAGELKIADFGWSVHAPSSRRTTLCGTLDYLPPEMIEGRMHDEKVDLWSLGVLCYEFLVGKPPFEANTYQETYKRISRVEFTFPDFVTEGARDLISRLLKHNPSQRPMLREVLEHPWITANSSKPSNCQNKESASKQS

NFS-60 = assay: Antiproliferative activity against mouse NFS-60 cells transfected with human ETV6-CSF1R assessed as reduction in cell viability measured after 72 hrs by MTS method; assay type: functional, cell-based; details: NFS-60, 72 h
[5] = molecular target: Vascular endothelial growth factor receptor 2 (Homo sapiens, UniProt P35968); assay: Inhibition of wild-type human partial length VEGFR2 (R787 to P1253 residues) expressed in mammalian expression system by Kinomescan method
[6] = molecular target: T4, Receptor-type tyrosine-protein kinase FLT3 (Homo sapiens, UniProt P36888); assay: Inhibition of wild-type human partial length FLT3 (V592 to Y969 residues) expressed in bacterial expression system by Kinomescan method
T4 sequence (P36888 whole entry): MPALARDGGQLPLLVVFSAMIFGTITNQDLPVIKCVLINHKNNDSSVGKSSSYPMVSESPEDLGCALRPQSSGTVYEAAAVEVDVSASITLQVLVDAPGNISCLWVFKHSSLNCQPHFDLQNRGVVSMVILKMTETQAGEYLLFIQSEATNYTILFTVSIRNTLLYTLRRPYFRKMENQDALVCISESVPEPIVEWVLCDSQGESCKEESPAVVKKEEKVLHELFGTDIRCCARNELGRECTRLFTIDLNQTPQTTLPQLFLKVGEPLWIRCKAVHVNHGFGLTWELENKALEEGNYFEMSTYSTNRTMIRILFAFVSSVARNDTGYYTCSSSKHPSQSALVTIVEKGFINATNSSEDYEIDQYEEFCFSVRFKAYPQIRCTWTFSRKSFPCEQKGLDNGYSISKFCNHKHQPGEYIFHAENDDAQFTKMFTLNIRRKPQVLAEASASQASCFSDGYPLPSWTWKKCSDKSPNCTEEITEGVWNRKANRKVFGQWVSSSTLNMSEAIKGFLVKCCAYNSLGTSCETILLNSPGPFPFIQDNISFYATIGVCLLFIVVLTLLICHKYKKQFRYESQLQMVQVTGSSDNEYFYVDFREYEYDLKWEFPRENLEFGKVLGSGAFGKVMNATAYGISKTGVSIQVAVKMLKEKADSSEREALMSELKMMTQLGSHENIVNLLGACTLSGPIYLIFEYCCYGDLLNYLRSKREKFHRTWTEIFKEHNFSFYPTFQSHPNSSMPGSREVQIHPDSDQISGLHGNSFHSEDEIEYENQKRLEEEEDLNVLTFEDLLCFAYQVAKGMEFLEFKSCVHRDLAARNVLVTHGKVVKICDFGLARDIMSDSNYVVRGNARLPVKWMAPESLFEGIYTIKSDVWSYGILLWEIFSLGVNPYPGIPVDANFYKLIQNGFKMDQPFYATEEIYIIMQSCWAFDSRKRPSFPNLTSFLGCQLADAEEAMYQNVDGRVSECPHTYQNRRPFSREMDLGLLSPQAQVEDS

[7] = Tmax in Sprague-Dawley rat at 20 to 25 mg/kg, po measured up to 24 hrs by LC-MS/MS analysis; assay type: ADME, organism-based; details: in vivo, dose 20-25 mg/kg
Aurora kinase B [8] = molecular target: T2, Aurora kinase B; assay: Inhibition of human recombinant full length GST-AURKB using tetra(-LRRASLG) peptide as substrate incubated for 20 mins by ATP Kinase Glo assay; design: species or system Sf9
[9] = molecular target: Serine/threonine-protein kinase PAK 3 (Homo sapiens, UniProt O75914); assay: Inhibition of wild-type human full length PAK3 (M1 to R544 residues) expressed in bacterial expression system by Kinomescan method
Sequence of Serine/threonine-protein kinase PAK 3 (O75914 whole entry, the tested form may be a part): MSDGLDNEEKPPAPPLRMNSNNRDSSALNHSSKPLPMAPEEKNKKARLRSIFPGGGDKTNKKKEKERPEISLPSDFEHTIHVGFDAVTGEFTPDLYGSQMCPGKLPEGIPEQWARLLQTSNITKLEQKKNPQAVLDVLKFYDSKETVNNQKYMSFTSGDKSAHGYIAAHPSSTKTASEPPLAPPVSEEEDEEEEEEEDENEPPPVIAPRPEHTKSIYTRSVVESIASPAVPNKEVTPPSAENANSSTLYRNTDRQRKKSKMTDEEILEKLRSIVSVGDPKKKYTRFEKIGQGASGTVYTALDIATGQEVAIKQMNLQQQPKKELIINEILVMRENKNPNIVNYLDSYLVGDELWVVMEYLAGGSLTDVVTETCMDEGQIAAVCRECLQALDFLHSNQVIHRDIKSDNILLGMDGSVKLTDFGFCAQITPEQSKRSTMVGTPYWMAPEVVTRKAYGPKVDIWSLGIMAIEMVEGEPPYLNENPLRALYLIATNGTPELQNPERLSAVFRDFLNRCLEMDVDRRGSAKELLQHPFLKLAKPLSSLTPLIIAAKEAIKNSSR

BMDM [10] = assay: Growth inhibition of CSF2-induced mouse BMDM cell assessed as inhibition of M1 like macrophage growth for 3 days by WST-8 assay; details: 72 h
[11] = Volume of distribution at steady state in Sprague-Dawley rat at 5 mg/kg, iv measured up to 24 hrs by LC-MS/MS analysis; assay type: ADME, organism-based; details: in vivo, read-out: Vdss
[12] = molecular target: Epithelial discoidin domain-containing receptor 1 (Homo sapiens, UniProt Q08345); assay: Inhibition of wild-type human partial length DDR1 (R565 to V876 residues) expressed in bacterial expression system by Kinomescan method
Sequence of Epithelial discoidin domain-containing receptor 1 (Q08345 whole entry, the tested form may be a part): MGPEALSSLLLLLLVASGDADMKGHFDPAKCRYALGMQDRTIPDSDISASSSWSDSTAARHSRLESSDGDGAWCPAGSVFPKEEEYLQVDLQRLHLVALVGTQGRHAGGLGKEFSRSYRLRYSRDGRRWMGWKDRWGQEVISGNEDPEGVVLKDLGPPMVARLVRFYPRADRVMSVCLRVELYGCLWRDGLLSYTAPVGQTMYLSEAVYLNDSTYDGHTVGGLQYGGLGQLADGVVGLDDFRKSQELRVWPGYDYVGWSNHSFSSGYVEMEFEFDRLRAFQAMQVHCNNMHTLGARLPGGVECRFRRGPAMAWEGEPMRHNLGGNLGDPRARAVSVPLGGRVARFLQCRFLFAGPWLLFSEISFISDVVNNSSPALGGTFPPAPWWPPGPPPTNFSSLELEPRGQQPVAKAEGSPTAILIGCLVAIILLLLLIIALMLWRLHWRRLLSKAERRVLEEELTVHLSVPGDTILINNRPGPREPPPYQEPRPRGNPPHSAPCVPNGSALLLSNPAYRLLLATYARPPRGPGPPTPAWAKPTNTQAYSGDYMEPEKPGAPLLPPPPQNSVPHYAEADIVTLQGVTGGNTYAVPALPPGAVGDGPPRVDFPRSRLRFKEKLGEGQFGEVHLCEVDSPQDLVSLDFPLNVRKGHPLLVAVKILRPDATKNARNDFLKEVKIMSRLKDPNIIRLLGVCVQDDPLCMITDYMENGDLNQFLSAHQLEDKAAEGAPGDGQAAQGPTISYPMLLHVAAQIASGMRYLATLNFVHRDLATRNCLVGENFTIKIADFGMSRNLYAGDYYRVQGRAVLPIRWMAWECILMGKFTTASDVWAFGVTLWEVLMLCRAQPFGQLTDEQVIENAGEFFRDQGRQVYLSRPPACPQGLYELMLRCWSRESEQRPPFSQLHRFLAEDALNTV

[13] = Dose normalized Cmax in Sprague-Dawley rat at 20 to 25 mg/kg, po measured up to 24 hrs by LC-MS/MS analysis; assay type: ADME, organism-based; details: in vivo, dose 20-25 mg/kg
BMDM [14] = assay: Growth inhibition of CSF1-induced mouse BMDM cell assessed as inhibition of M2 like macrophage growth incubated for 3 days by WST-8 assay; details: 72 h
[15] = Clearance in Sprague-Dawley rat at 5 mg/kg, iv measured up to 24 hrs by LC-MS/MS analysis; assay type: ADME, organism-based; details: in vivo
[16] = Half life in Sprague-Dawley rat at 20 to 25 mg/kg, po measured up to 24 hrs by LC-MS/MS analysis; assay type: ADME, organism-based; details: in vivo, dose 20-25 mg/kg
[17] = molecular target: Platelet-derived growth factor receptor beta (Homo sapiens, UniProt P09619); assay: Inhibition of wild-type human partial length PDGFRbeta (V582 to Y1009 residues) expressed in bacterial expression system by Kinomescan method
Sequence of Platelet-derived growth factor receptor beta (P09619 whole entry, the tested form may be a part): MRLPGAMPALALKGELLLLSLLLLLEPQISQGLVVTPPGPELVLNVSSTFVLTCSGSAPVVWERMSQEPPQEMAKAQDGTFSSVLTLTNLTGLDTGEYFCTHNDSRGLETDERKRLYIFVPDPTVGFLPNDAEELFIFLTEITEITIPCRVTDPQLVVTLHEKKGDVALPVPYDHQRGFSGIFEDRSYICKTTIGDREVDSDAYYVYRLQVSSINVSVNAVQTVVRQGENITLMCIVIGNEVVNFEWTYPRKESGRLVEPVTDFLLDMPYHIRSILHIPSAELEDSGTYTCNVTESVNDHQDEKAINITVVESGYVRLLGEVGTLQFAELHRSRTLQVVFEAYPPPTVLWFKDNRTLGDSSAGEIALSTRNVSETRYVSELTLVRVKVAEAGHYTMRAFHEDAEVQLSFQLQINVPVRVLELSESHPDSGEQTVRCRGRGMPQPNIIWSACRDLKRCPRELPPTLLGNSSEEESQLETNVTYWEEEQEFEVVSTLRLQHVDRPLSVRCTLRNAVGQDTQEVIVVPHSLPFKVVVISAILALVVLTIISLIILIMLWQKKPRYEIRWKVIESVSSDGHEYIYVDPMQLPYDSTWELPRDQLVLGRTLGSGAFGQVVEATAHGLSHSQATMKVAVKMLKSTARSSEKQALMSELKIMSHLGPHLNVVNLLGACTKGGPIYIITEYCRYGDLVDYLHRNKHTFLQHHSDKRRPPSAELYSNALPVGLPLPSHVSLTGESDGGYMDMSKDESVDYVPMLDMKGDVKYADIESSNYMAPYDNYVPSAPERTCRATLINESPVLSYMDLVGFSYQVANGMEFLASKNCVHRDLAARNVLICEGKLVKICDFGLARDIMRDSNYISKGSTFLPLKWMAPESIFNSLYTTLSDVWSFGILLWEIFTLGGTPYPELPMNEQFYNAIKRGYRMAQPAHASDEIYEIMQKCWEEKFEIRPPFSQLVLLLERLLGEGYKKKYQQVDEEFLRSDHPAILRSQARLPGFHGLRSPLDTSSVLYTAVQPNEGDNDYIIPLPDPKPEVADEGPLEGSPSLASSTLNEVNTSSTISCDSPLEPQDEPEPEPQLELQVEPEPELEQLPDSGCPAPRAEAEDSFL

[18] = molecular target: Platelet-derived growth factor receptor alpha (Homo sapiens, UniProt P16234); assay: Inhibition of wild-type human partial length PDGFRalpha (V575 to D1002 residues) expressed in mammalian expression system by Kinomescan method
Sequence of Platelet-derived growth factor receptor alpha (P16234 whole entry, the tested form may be a part): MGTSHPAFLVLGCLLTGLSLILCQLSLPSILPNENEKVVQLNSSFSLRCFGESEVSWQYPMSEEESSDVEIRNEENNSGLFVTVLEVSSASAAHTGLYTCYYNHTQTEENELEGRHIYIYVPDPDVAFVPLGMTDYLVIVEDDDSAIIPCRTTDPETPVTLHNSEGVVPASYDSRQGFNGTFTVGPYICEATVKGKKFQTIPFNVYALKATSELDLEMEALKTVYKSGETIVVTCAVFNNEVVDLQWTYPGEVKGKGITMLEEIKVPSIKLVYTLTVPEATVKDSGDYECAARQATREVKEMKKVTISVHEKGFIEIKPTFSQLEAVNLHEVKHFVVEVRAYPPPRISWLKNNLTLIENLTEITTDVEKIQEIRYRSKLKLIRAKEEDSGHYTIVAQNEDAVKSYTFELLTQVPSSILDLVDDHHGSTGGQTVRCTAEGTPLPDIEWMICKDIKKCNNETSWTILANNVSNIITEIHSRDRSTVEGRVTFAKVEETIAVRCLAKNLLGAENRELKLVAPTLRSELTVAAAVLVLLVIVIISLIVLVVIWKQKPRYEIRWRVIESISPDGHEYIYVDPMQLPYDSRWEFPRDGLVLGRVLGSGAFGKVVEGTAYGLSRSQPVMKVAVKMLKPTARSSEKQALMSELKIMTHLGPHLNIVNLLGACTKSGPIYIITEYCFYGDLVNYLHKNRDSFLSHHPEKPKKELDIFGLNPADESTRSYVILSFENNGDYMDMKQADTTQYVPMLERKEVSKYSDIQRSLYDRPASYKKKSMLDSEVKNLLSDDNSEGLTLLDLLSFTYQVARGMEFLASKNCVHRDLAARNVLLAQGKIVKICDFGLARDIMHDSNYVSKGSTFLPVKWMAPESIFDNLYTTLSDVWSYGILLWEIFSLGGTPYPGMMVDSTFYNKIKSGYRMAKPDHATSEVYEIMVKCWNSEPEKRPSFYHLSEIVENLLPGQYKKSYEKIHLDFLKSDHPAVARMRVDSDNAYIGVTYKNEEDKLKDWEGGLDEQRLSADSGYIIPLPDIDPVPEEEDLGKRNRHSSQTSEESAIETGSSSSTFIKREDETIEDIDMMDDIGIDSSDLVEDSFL

[19] = molecular target: Mast/stem cell growth factor receptor Kit (Homo sapiens, UniProt P10721); assay: Inhibition of human c-Kit by Kinomescan method
Mus musculus [20] = assay: Immunomodulatory activity in mouse MC38 cells inoculated C57BL/6 mouse syngeneic model assessed as increase in cytotoxic CD8+ T cell to M2 like TAM ratio in tumor at 100 mg/kg, po twice a day for 2 weeks by five days on/two days off schedule relative to control; assay type: functional, organism-based; details: MC-38
[21] = molecular target: T1, Macrophage colony-stimulating factor 1 receptor; assay: Inhibition of CSF1R phosphorylation in human THP-1 cells by Western blotting analysis; assay type: cell-based
Aurora kinase B [22] = molecular target: T2, Aurora kinase B; assay: Inhibition of human recombinant full length GST-AURKB using tetra(-LRRASLG) peptide as substrate at 0.1 uM incubated for 20 mins by ATP Kinase Glo assay; assay type: biochemical; details: Sf9
[23] = molecular target: T5, Aurora kinase A (Homo sapiens) (UniProt O14965); assay: Inhibition of recombinant GST-AURKA (residues Ser123 to Ser401) (unknown origin) expressed in Sf9 insect cells using tetra(-LRRASLG) peptide as substrate at 1 uM incubated for 90 mins by ATP Kinase Glo assay
T5 sequence (whole entry): T3 sequence (O14965 whole entry)

[24] = molecular target: T6, Macrophage colony-stimulating factor 1 receptor (Mus musculus) (UniProt P09581); assay: Inhibition of CSF1R phosphorylation in mouse RAW264.7 cells by Western blotting analysis; assay type: cell-based
T6 sequence (whole entry): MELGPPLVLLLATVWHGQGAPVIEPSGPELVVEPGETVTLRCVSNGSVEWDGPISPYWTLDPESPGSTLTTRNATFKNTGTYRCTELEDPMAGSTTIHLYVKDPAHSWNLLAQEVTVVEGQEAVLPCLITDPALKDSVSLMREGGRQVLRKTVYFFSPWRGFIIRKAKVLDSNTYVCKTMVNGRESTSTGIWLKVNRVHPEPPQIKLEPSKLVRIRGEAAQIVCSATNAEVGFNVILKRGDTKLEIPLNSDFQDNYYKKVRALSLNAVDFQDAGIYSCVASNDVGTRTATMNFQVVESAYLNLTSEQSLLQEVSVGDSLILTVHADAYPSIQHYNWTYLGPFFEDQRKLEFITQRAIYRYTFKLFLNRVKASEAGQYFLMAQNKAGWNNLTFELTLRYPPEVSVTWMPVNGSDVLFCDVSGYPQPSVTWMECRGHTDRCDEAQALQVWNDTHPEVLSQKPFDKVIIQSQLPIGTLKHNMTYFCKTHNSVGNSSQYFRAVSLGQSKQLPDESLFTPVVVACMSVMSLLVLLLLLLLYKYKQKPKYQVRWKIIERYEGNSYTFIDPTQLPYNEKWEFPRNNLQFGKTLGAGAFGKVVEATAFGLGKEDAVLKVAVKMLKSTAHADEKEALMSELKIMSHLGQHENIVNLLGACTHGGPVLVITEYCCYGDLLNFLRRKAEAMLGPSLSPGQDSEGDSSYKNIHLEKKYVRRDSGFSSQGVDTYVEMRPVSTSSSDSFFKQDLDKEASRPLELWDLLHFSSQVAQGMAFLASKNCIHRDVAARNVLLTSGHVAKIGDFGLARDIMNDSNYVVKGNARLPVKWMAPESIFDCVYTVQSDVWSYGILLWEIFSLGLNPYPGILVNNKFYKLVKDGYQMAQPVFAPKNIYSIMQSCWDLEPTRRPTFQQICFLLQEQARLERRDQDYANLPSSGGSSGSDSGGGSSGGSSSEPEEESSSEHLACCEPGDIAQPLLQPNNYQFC

Mus musculus [25] = assay: Immunomodulatory activity in mouse MC38 cells inoculated C57BL/6 mouse syngeneic model assessed as increase in M1 to M2 like TAM ratio in tumor at 100 mg/kg, po twice a day for 2 weeks by five days on/two days off schedule relative to control; assay type: functional, organism-based; details: MC-38
RAW264.7 = assay: Anti-inflammatory activity mouse RAW264.7 cells assessed as inhibition of LPS-induced TNFalpha production by ELISA; assay type: functional, cell-based

- EC50 (BaF3): 80 nM
- half-life [1]: 2.9 h
- IC50 [2]: 14.4 nM
- IC50 (Aurora kinase B [3]): 226 nM
- bioavailability [4]: 10%
- IC50 (Aurora kinase A): > 10000 nM
- IC50 [5]: > 9000 nM
- IC50 [6]: 64.3 nM
- Tmax [7]: 5.5 h
- IC50 (Aurora kinase B [8]): 1400 nM
- IC50 [9]: > 9000 nM
- Vd [11]: 0.6 L/kg
- IC50 [12]: 59.7 nM
- Cmax/dose [13]: 24 ng/mL
- clearance [15]: 4.5 mL/min/kg
- half-life [16]: 8.7 h
- IC50 [17]: 31.5 nM
- IC50 [18]: 52.7 nM
- IC50 [19]: 1.1 nM
SMILES: CN(C)c1ccc2c(Oc3ccc(NC(=O)NCc4ccc(C(F)(F)F)nc4)cc3)ncnc2c1 [listing 1 of 2 here]
- EC50 (NFS-60): 95 nM
- IC50 (BMDM [10]): 5390 nM
- IC50 (BMDM [14]): 31 nM

- inhibition [21]: Dose-Dependent Effect
- inhibition (Aurora kinase B [22]): 16%
- inhibition [23]: 7%
- inhibition [24]: Dose-Dependent Effect
SMILES: CN(C)c1ccc2c(Oc3ccc(NC(=O)NCc4ccc(C(F)(F)F)nc4)cc3)ncnc2c1 [listing 2 of 2 here]
- Activity (Mus musculus [20]): Active
- Activity (Mus musculus [25]): Active
- inhibition (RAW264.7): Active
